{"source": "patent US12059416B2", "about": "“Combinations of a H3 antagonist and a noradrenaline reuptake inhibitor, and the therapeutical uses thereof” (BIOPROJET, priority 2018, dated 2024)", "key": {"male Wistar rats": {"system": "male Wistar rats", "assay": "Effect on sleep/wake (EEG telemetry) in rats", "assay_type": "in vivo, rat", "conditions": "oral gavage, over 12 hours", "description": "Effects on sleep/wake parameters were investigated in male Wistar rats. Briefly, rats were stereotaxically implanted with cortical electrodes for electroencephalogram (EEG) recording using a telemetric system (Data Sciences Int., Saint Paul, MN, USA) for the acquisition, transfer and storage of motor activity and EEG signals. EEG signals were analysed according to a procedure adapted from the algorithm proposed by R. P. Louis et al. (J. Neurosci. Methods, 2004, 133, 71-80) and the analysis of vigilance stages according to H. Kleinlogel (Neuropsychobiol. 1990-91, 23, 197-204) after a fast Fourier transformation of 8-second duration EEG epochs. This allows the determination for each epoch of its vigilance stage (i.e. active wakefulness, quiet wakefulness, light or deep slow wave sleeps and REM sleep also named paradoxical sleep). Rats received orally (gavage) vehicle, drug or drug combination around 30 minutes before the light onset. Then, EEG signals were continuously recorded and further integrated over the 12-hour diurnal phase.\nEffects on sleep/wake recorded in rats of drugs alone or combined are presented in the FIG. 1 (Pitolisant/duloxetine), FIG. 2 (BP1.3656B/duloxetine), FIG. 3 (pitolisant/reboxetine) and FIG. 4 (pitolisant/atomoxetine): […]"}, "[1]": {"system": "noradrenaline release in the prefrontal cortex", "assay": "Noradrenaline release in the prefrontal cortex, in vivo microdialysis", "conditions": "rat prefrontal cortex, oral gavage, maximal increase recorded over 150 min post dosing, mean ± SEM", "description": "Effects on noradrenaline release in the prefrontal cortex were investigated in vivo by microdialysis in vigil male Wistar rats as described by AD Medhurst et al. (J. Pharmacol. Exp. Ther. 2007, 321, 1032-1045) and G. Flik et al. (J. Mol. Neurosci. 2015, 56, 320-328). Briefly, anaesthetized rats were implanted with a guide cannulae for sampling in the prefrontal cortex. After at least one week of recovery post-surgery, the microdialysis probe was inserted in the guide cannulae and perfused continuously with artificial cerebrospinal fluid (CSF). The rat was habituated to the microdialysis cage for ˜3 hours. Then, rats received orally (gavage) vehicle, drug or drug combination. CSF samples collected every 30 minutes were analysed for their noradrenaline content by HPLC coupled to a electrochemical detection. Noradrenaline sample levels were expressed in percentage of basal noradrenaline release recorded over 1.5 hour before vehicle or drug treatment."}}, "note": "Structures can show the parent of a compound that is named as a salt.", "data": [{"compound": "Clc1ccc(CCCOCCCN2CCCCC2)cc1", "note": "[pitolisant, monohydrochloride salt of 1-{3-[3-(4-chlorophenyl)propoxy]propyl}piperidine]", "values": [{"measurement": "decrease in the REM sleep", "setting": "male Wistar rats", "result": "does not have any significant effect"}, {"measurement": "Maximal increase (% of basal noradrenaline release)", "setting": "[1]", "result": "+148 ± 49%"}]}, {"compound": "CNCC[C@H](Oc1cccc2ccccc12)c1cccs1", "note": "[duloxetine]", "values": [{"measurement": "decrease in the REM sleep", "setting": "male Wistar rats", "result": "−23", "unit": "%"}, {"measurement": "Maximal increase (% of basal noradrenaline release)", "setting": "[1]", "result": "+113 ± 31%"}]}]}
